What follows are compounds tested against T1, human DP2 receptor (Homo sapiens, UniProt Q9Y5Y4) (assay: DP2/CRTH2 binding assay (radioligand binding with [3H]PGD2)). Details: [3H]PGD2 binding, membranes of HEK293 cells expressing recombinant human DP2; read-out: hDP2.
T1 construct: expressed in transfected cells
T1 sequence (Q9Y5Y4 1-395): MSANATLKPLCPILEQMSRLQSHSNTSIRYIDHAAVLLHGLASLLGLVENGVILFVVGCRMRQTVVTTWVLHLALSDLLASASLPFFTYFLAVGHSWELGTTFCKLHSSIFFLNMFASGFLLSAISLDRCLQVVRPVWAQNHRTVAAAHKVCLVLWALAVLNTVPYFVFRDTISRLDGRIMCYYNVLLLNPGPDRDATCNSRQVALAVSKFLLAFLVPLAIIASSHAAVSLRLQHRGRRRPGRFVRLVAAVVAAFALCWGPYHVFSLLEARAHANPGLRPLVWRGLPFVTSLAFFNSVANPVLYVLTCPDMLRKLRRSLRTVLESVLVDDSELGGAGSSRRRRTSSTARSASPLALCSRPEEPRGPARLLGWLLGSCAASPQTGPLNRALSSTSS
Procedure: The ability of a compound to bind to the human DP2 receptor is assessed via a radioligand binding assay using [^3H]PGD2. HEK293 cells stably expressing recombinant human DP2 are resuspended in 10 mM Hepes, 7.4 containing 1 mM DTT, lysed and centrifuged at 75,000×g to pellet the membranes. The membranes are resuspended in 10 mM Hepes, 7.4 containing 1 mM DTT and 10% glycerol to approximately 5 mg protein/ml. Membranes (2-10 μg protein/well) are incubated in 96-well plates with 1 nM [^3H]PGD2 and test compound in Assay Buffer (50 mM Hepes, 10 mM MnCl2, 1 mM EDTA, plus or minus 0.2% human serum albumin, pH 7.4) for 60 minutes at room temperature. The reactions are terminated by rapid filtration through Whatman GF/C glass fibre filter plates. The filter plates were pre-soaked in 0.33% polythylenimine for 30 minutes at room temperature then washed in Wash Buffer (50 mM Hepes, 0.5 M NaCl pH 7.4) prior to harvesting. After harvesting, the filter plates are washed 3 times with 1 ml cold Wash Buffer then dried. Scintillant is then added to the plates and the radioactivity retained on the filters is determined on a Packard TopCount (Perkin Elmer). Specific binding is determined as total radioactive binding minus non-specific binding in the presence of 10 μM PGD2. IC50s were determined using GraphPad prism analysis of drug titration curves.

SMILES | IC50 [nM]
CC(=O)N(Cc1ccccc1)Cc1cc(C(F)(F)F)ccc1-c1cc(CC(=O)O)cnc1Cl [Compound 19, (5-{2-[(N-Acetyl-N-benzyl-amino)-methyl]-4-trifluoromethyl-phenyl}-6-chloro-pyridin-3-yl)-acetic acid] | < 300
O=C(O)CCn1c2c(c3ccccc31)C[C@H](NS(=O)(=O)c1ccc(F)cc1)CC2 [Ramatroban, reference compound] | 300 to 1000
CCN(Cc1cc(C(F)(F)F)ccc1-c1cc(CC(=O)O)c[n+]([O-])c1)C(=O)OCc1ccccc1 [Compound 15, (5-{2-[(N-Benzyloxycarbonyl-N-ethyl-amino)-methyl]-4-trifluoromethyl-phenyl}-1-oxy-pyridin-3-yl)-acetic acid] | < 300
O=C(O)Cc1cncc(-c2ccc(-c3nn[nH]n3)cc2CN(Cc2ccccc2)C(=O)C2CC2)c1 [Compound 4, {5-[2-[(N-Benzyl-N-cyclopropanecarbonyl-amino)-methyl]-4-(2H-tetrazol-5-yl)-phenyl]-pyridin-3-yl}-acetic acid] | < 300
CCN(Cc1cc(C(F)(F)F)ccc1-c1cncc(CC(=O)O)c1)C(=O)Cc1ccc(Cl)nc1 [Compound 31, {5-[2-({N-[2-(6-Chloro-pyridin-3-yl)-acetyl]-N-ethyl-amino}-methyl)-4-trifluoromethyl-phenyl]-pyridin-3-yl}-acetic acid] | < 300
CCN(Cc1cc(C(=O)O)ccc1-c1cncc(CC(=O)O)c1)C(=O)OCc1ccccc1 [Compound 1, 3-[(N-Benzyloxycarbonyl-N-ethyl-amino)-methyl]-4-(5-carboxymethyl-pyridin-3-yl)-benzoic acid] | < 300
CCN(Cc1cc(C(F)(F)F)ccc1-c1cc(CC(=O)O)cnc1OC)C(=O)C1CC1 [Compound 10, (5-{2-[(N-Cyclopropanecarbonyl-N-ethyl-amino)-methyl]-4-trifluoromethyl-phenyl}-6-methoxy-pyridin-3-yl)-acetic acid] | < 300
O=C(O)Cc1cncc(-c2ccc(C(=O)NCc3ccccc3)cc2CN(Cc2ccccc2)C(=O)C2CC2)c1 [Compound 5, (5-{4-Benzylcarbamoyl-2-[(N-benzyl-N-cyclopropanecarbonyl-amino)-methyl]-phenyl}-pyridin-3-yl)-acetic acid] | < 300
CCN(Cc1cc(F)ccc1-c1cncc(CC(=O)O)c1)C(=O)C1CC1 [Compound 23, (5-{2-[(N-Cyclopropanecarbonyl-N-ethyl-amino)-methyl]-4-fluoro-phenyl}-pyridin-3-yl)-acetic acid] | 300 to 1000
CCN(Cc1cc(C(F)(F)F)ccc1-c1cncc(CC(=O)O)c1)C(=O)Cc1ccccc1 [Compound 16, (5-{2-[(N-Ethyl-N-phenylacetyl-amino)-methyl]-4-trifluoromethyl-phenyl}-pyridin-3-yl)-acetic acid] | < 300
CC(=O)N(Cc1ccccc1)Cc1cc(C(F)(F)F)ccc1-c1cc(CC(=O)O)cnc1O [Compound 26, (5-{2-[(N-Acetyl-N-benzyl-amino)-methyl]-4-trifluoromethyl-phenyl}-6-hydroxy-pyridin-3-yl)-acetic acid] | < 300
CCN(Cc1cc(S)ccc1-c1cncc(CC(=O)O)c1)C(=O)C1CC1 [Compound 24, (5-{2-[(N-Cyclopropanecarbonyl-N-ethyl-amino)-methyl]-4-mercapto-phenyl}-pyridin-3-yl)-acetic acid] | < 300
CCN(Cc1cc(C(F)(F)F)ccc1-c1cc(CC(=O)O)cnc1OC)C(=O)NCc1ccccc1 [Compound 27, {5-[2-(3-Benzyl-1-ethyl-ureidomethyl)-4-trifluoromethyl-phenyl]-6-methoxy-pyridin-3-yl}-acetic acid] | < 300
CC(=O)N(Cc1ccccc1)Cc1cc(C(F)(F)F)ccc1-c1cncc(CC(=O)O)c1 [Compound 18, (5-{2-[(N-Acetyl-N-benzyl-amino)-methyl]-4-trifluoromethyl-phenyl}-pyridin-3-yl)-acetic acid] | < 300
CCN(Cc1cc(C(=O)O)ccc1-c1cncc(CC(=O)O)c1)C(=O)C1CC1 [Compound 2, 4-(5-Carboxymethyl-pyridin-3-yl)-3-[(N-cyclopropanecarbonyl-N-ethyl-amino)-methyl]-benzoic acid] | < 300
CCN(Cc1cc(C(F)(F)F)ccc1-c1cc(CC(=O)O)cnc1OCC(F)(F)F)C(=O)C1CC1 [Compound 39, [5-{2-[(N-Cyclopropanecarbonyl-N-ethyl-amino)-methyl]-4-trifluoromethyl-phenyl}-6-(2,2,2-trifluoro-ethoxy)-pyridin-3-yl]-acetic acid] | < 300
CCN(Cc1cc(C(F)(F)F)ccc1-c1cncc(CC(=O)O)c1)C(=O)OCc1ccccc1 [Compound 12, (5-{2-[(N-Benzyloxycarbonyl-N-ethyl-amino)-methyl]-4-trifluoromethyl-phenyl}-pyridin-3-yl)-acetic acid] | < 300
CCN(Cc1cc(C(F)(F)F)ccc1-c1cc(CC(=O)O)cnc1Cl)C(=O)C1CC1 [Compound 11, (6-Chloro-5-{2-[(N-cyclopropanecarbonyl-N-ethyl-amino)-methyl]-4-trifluoromethyl-phenyl}-pyridin-3-yl)-acetic acid] | 300 to 1000
CCN(Cc1cc(C(F)(F)F)ccc1-c1cc(CC(=O)O)cnc1OC)C(=O)COC [Compound 42, [5-(2-{[N-Ethyl-N-(2-methoxy-acetyl)-amino]-methyl}-4-trifluoromethyl-phenyl)-6-methoxy-pyridin-3-yl]-acetic acid] | < 300
CCN(Cc1cc(C(F)(F)F)ccc1-c1cncc(CC(=O)O)c1)C(=O)C1CC1 [Compound 8, (5-{2-[(N-Cyclopropanecarbonyl-N-ethyl-amino)-methyl]-4-trifluoromethyl-phenyl}-pyridin-3-yl)-acetic acid] | < 300
CCN(Cc1cc(C(F)(F)F)ccc1-c1cnc(Cl)c(CC(=O)O)c1)C(=O)C1CC1 [Compound 9, (2-Chloro-5-{2-[(N-cyclopropanecarbonyl-N-ethyl-amino)-methyl]-4-trifluoromethyl-phenyl}-pyridin-3-yl)-acetic acid] | 300 to 1000
CCOC(=O)N(CC)Cc1cc(C(F)(F)F)ccc1-c1cc(CC(=O)O)cnc1OC [Compound 43, (5-{2-[(N-Ethoxycarbonyl-N-ethyl-amino)-methyl]-4-trifluoromethyl-phenyl}-6-methoxy-pyridin-3-yl)-acetic acid] | < 300
CCN(Cc1cc(C(F)(F)F)ccc1-c1cc(CC(=O)O)cnc1OC)C(=O)OCc1ccccc1 [Compound 40, (5-{2-[(N-Benzyloxycarbonyl-N-ethyl-amino)-methyl]-4-trifluoromethyl-phenyl}-6-methoxy-pyridin-3-yl)-acetic acid] | < 300
CCN(Cc1cc(SC)ccc1-c1cncc(CC(=O)O)c1)C(=O)C1CC1 [Compound 21, (5-{2-[(N-Cyclopropanecarbonyl-N-ethyl-amino)-methyl]-4-methylsulfanyl-phenyl}-pyridin-3-yl)-acetic acid] | < 300
CCN(Cc1cc(C(F)(F)F)ccc1-c1cc(CC(=O)O)cnc1O)C(=O)C1CC1 [Compound 38, (5-{2-[(N-Cyclopropanecarbonyl-N-ethyl-amino)-methyl]-4-trifluoromethyl-phenyl}-6-hydroxy-pyridin-3-yl)-acetic acid] | 300 to 1000
CCN(Cc1cc(C(F)(F)F)ccc1-c1cncc(CC(=O)O)c1)C(=O)Cc1ccc(C)nc1 [Compound 37, {5-[2-({N-Ethyl-N-[2-(6-methyl-pyridin-3-yl)-acetyl]-amino}-methyl)-4-trifluoromethyl-phenyl]-pyridin-3-yl}-acetic acid] | < 300
CCN(Cc1cc(C(F)(F)F)ccc1-c1cncc(CC(=O)O)c1)C(=O)NCc1ccccc1 [Compound 14, {5-[2-(3-Benzyl-1-ethyl-ureidomethyl)-4-trifluoromethyl-phenyl]-pyridin-3-yl}-acetic acid] | < 300
CCN(Cc1cc(C(F)(F)F)ccc1-c1cncc(CC(=O)O)c1)C(=O)c1cnccn1 [Compound 29, [5-(2-{[N-Ethyl-N-(pyrazine-2-carbonyl)-amino]-methyl}-4-trifluoromethyl-phenyl)-pyridin-3-yl]-acetic acid] | 300 to 1000
COc1ncc(CC(=O)O)cc1-c1ccc(C(F)(F)F)cc1CN(Cc1ccccc1)C(C)=O [Compound 28, (5-{2-[(N-Acetyl-N-benzyl-amino)-methyl]-4-trifluoromethyl-phenyl}-6-methoxy-pyridin-3-yl)-acetic acid] | < 300
CCN(Cc1cc(C(F)(F)F)ccc1-c1cncc(CC(=O)O)c1)C(=O)CCc1cccnc1 [Compound 36, [5-(2-{[N-Ethyl-N-(3-pyridin-3-yl-propionyl)-amino]-methyl}-4-trifluoromethyl-phenyl)-pyridin-3-yl]-acetic acid] | 300 to 1000

Source: patent US8049015B2 (Panmira Pharmaceuticals, LLC, priority 2008, dated 2011)
